Earlier results, collected in US20040037835A1, “Cytotoxic agents” (priority 1995, published 2004).

Key:
[1] = biological target: E. coli nitroreductase (Escherichia coli, UniProt P38489)
[2] = system: CHO cells; settings: in vitro co-culture of Walker cells and CHO cells

Sequence of E. coli nitroreductase (P38489 whole entry): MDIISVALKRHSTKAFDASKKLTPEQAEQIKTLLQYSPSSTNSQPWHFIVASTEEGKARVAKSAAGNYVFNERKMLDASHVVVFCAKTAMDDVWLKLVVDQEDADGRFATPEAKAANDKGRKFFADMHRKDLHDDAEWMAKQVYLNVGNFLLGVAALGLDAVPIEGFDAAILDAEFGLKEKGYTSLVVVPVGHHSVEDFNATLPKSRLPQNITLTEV

SMILES: NC(=O)c1cc(N2CC2)c([N+](=O)[O-])cc1[N+](=O)[O-] [CB 1954, 5-(aziridin-1-yl)-2,4-dinitrobenzamide]
- substrate for the enzyme [1]: poor substrate
- bystander effect: kill of CHO cells that do not contain nitroreductase [2]: substantially killed
